Assay results as given in PubChem BioAssay (NCI).
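Assay format: 96-well plates, 48-hour exposure. GI50: concentration for 50% inhibition of growth. The concentration for full growth arrest is given as TGI.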

How the values were obtained:
Assay in all cases: NCI-60 cell line screen, 48 h
SF-268 CNS = test system: SF-268 CNS
SN12C renal = test system: SN12C renal
SK-MEL-5 melanoma = test system: SK-MEL-5 melanoma
UACC-257 melanoma = test system: UACC-257 melanoma
MDA-MB-435 = test system: MDA-MB-435
IGROV1 ovarian = test system: IGROV1 ovarian
MALME-3M melanoma = test system: MALME-3M melanoma
UO-31 renal = test system: UO-31 renal
MCF7 breast = test system: MCF7 breast
HCT-15 colon = test system: HCT-15 colon
M14 melanoma = test system: M14 melanoma
KM12 colon = test system: KM12 colon
SR leukemia = test system: SR leukemia
U251 CNS = test system: U251 CNS
HOP-92 NSCLC = test system: HOP-92 NSCLC
SNB-75 CNS = test system: SNB-75 CNS
MOLT-4 leukemia = test system: MOLT-4 leukemia
NCI-H226 lung = test system: NCI-H226 lung
NCI/ADR-RES ovarian = test system: NCI/ADR-RES ovarian
CCRF-CEM leukemia = test system: CCRF-CEM leukemia
HCC-2998 colon = test system: HCC-2998 colon
RXF 393 renal = test system: RXF 393 renal
TK-10 renal = test system: TK-10 renal
T-47D breast = test system: T-47D breast
HS 578T breast = test system: HS 578T breast
NCI-H23 lung = test system: NCI-H23 lung
CAKI-1 renal = test system: CAKI-1 renal
786-0 renal = test system: 786-0 renal
MDA-MB-231 breast = test system: MDA-MB-231 breast
NCI-H460 lung = test system: NCI-H460 lung
HL-60(TB) leukemia = test system: HL-60(TB) leukemia
SK-OV-3 ovarian = test system: SK-OV-3 ovarian
SW-620 colon = test system: SW-620 colon
SK-MEL-28 melanoma = test system: SK-MEL-28 melanoma
K-562 leukemia = test system: K-562 leukemia
UACC-62 melanoma = test system: UACC-62 melanoma
OVCAR-8 ovarian = test system: OVCAR-8 ovarian
ACHN renal = test system: ACHN renal
RPMI-8226 leukemia = test system: RPMI-8226 leukemia
HT29 colon = test system: HT29 colon
DU-145 prostate = test system: DU-145 prostate
OVCAR-5 ovarian = test system: OVCAR-5 ovarian
SK-MEL-2 melanoma = test system: SK-MEL-2 melanoma
PC-3 prostate = test system: PC-3 prostate
HCT-116 colon = test system: HCT-116 colon
OVCAR-4 ovarian = test system: OVCAR-4 ovarian
OVCAR-3 ovarian = test system: OVCAR-3 ovarian
NCI-H522 lung = test system: NCI-H522 lung
BT-549 breast = test system: BT-549 breast
EKVX NSCLC = test system: EKVX NSCLC
A498 renal = test system: A498 renal
SNB-19 CNS = test system: SNB-19 CNS
SF-539 CNS = test system: SF-539 CNS
HOP-62 NSCLC = test system: HOP-62 NSCLC
LOX IMVI melanoma = test system: LOX IMVI melanoma
A549 NSCLC = test system: A549 NSCLC
COLO 205 colon = test system: COLO 205 colon
SF-295 CNS = test system: SF-295 CNS

CSc1ccc(/C(=N/N=C(N)N)c2ccc(Cl)cc2)cc1
GI50 (SF-268 CNS): 1.06 µM | TGI (SF-268 CNS): 6.63 µM | GI50 (SN12C renal): 0.5 µM | TGI (SN12C renal): 2.21 µM | GI50 (SK-MEL-5 melanoma): 0.949 µM | TGI (SK-MEL-5 melanoma): 2.16 µM | GI50 (UACC-257 melanoma): 0.891 µM | TGI (UACC-257 melanoma): 2.52 µM | GI50 (MDA-MB-435): 0.242 µM | TGI (MDA-MB-435): 0.593 µM | GI50 (IGROV1 ovarian): 0.86 µM | TGI (IGROV1 ovarian): 5.86 µM | GI50 (MALME-3M melanoma): 0.869 µM | TGI (MALME-3M melanoma): 2.41 µM | GI50 (UO-31 renal): 1 µM | TGI (UO-31 renal): 4.03 µM | GI50 (MCF7 breast): 0.355 µM | TGI (MCF7 breast): 2.06 µM | GI50 (HCT-15 colon): 0.34 µM | TGI (HCT-15 colon): 2.14 µM | GI50 (M14 melanoma): 0.362 µM | TGI (M14 melanoma): 1.27 µM | GI50 (KM12 colon): 0.416 µM | TGI (KM12 colon): 4.01 µM | GI50 (SR leukemia): 0.349 µM | TGI (SR leukemia): 2.3 µM | GI50 (U251 CNS): 0.382 µM | TGI (U251 CNS): 2.17 µM | GI50 (HOP-92 NSCLC): 0.663 µM | TGI (HOP-92 NSCLC): 5.51 µM | GI50 (SNB-75 CNS): 0.38 µM | TGI (SNB-75 CNS): 4.14 µM | GI50 (MOLT-4 leukemia): 0.422 µM | TGI (MOLT-4 leukemia): 3.52 µM | GI50 (NCI-H226 lung): 1.18 µM | TGI (NCI-H226 lung): 6.4 µM | GI50 (NCI/ADR-RES ovarian): 0.748 µM | TGI (NCI/ADR-RES ovarian): 2.87 µM | GI50 (CCRF-CEM leukemia): 0.375 µM | TGI (CCRF-CEM leukemia): 5.99 µM | GI50 (HCC-2998 colon): 0.333 µM | TGI (HCC-2998 colon): 1.16 µM | GI50 (RXF 393 renal): 0.509 µM | TGI (RXF 393 renal): 2.14 µM | GI50 (TK-10 renal): 2.83 µM | TGI (TK-10 renal): 12.6 µM | GI50 (T-47D breast): 0.558 µM | TGI (T-47D breast): 4.94 µM | GI50 (HS 578T breast): 1.28 µM | TGI (HS 578T breast): 14.9 µM | GI50 (NCI-H23 lung): 0.617 µM | TGI (NCI-H23 lung): 12 µM | GI50 (CAKI-1 renal): 0.536 µM | TGI (CAKI-1 renal): 2.98 µM | GI50 (786-0 renal): 0.754 µM | TGI (786-0 renal): 2.35 µM | GI50 (MDA-MB-231 breast): 0.499 µM | TGI (MDA-MB-231 breast): 3.18 µM | GI50 (NCI-H460 lung): 0.376 µM | TGI (NCI-H460 lung): 1.51 µM | GI50 (HL-60(TB) leukemia): 0.268 µM | TGI (HL-60(TB) leukemia): 0.784 µM | GI50 (SK-OV-3 ovarian): 0.593 µM | TGI (SK-OV-3 ovarian): 14.3 µM | GI50 (SW-620 colon): 0.48 µM | TGI (SW-620 colon): 1.96 µM | GI50 (SK-MEL-28 melanoma): 0.957 µM | TGI (SK-MEL-28 melanoma): 2.35 µM | GI50 (K-562 leukemia): 0.342 µM | TGI (K-562 leukemia): 1.7 µM | GI50 (UACC-62 melanoma): 0.707 µM | TGI (UACC-62 melanoma): 2.42 µM | GI50 (OVCAR-8 ovarian): 0.607 µM | TGI (OVCAR-8 ovarian): 3.87 µM | GI50 (ACHN renal): 0.744 µM | TGI (ACHN renal): 4.46 µM | GI50 (RPMI-8226 leukemia): 0.456 µM | TGI (RPMI-8226 leukemia): 3.13 µM | GI50 (HT29 colon): 0.332 µM | TGI (HT29 colon): 1.13 µM | GI50 (DU-145 prostate): 0.468 µM | TGI (DU-145 prostate): 4.24 µM | GI50 (OVCAR-5 ovarian): 0.496 µM | TGI (OVCAR-5 ovarian): 7.27 µM | GI50 (SK-MEL-2 melanoma): 0.473 µM | TGI (SK-MEL-2 melanoma): 3.84 µM | GI50 (PC-3 prostate): 0.447 µM | TGI (PC-3 prostate): 5.22 µM | GI50 (HCT-116 colon): 0.364 µM | TGI (HCT-116 colon): 1.27 µM | GI50 (OVCAR-4 ovarian): 1.55 µM | TGI (OVCAR-4 ovarian): 13.2 µM | GI50 (OVCAR-3 ovarian): 0.5 µM | TGI (OVCAR-3 ovarian): 4.13 µM | GI50 (NCI-H522 lung): 0.213 µM | TGI (NCI-H522 lung): 0.516 µM | GI50 (BT-549 breast): 1.7 µM | TGI (BT-549 breast): 3.35 µM | GI50 (EKVX NSCLC): 1.03 µM | TGI (EKVX NSCLC): 14.7 µM | GI50 (A498 renal): 1.81 µM | TGI (A498 renal): 4.98 µM | GI50 (SNB-19 CNS): 0.696 µM | TGI (SNB-19 CNS): 14.2 µM | GI50 (SF-539 CNS): 0.291 µM | TGI (SF-539 CNS): 0.935 µM | GI50 (HOP-62 NSCLC): 0.569 µM | TGI (HOP-62 NSCLC): 5.66 µM | GI50 (LOX IMVI melanoma): 0.397 µM | TGI (LOX IMVI melanoma): 1.52 µM | GI50 (A549 NSCLC): 0.399 µM | TGI (A549 NSCLC): 4.81 µM | GI50 (COLO 205 colon): 0.298 µM | TGI (COLO 205 colon): 0.864 µM | GI50 (SF-295 CNS): 0.368 µM | TGI (SF-295 CNS): 1.57 µM
